The text below walks through data of article PMC3341389, “Spiroindolines Identify the Vesicular Acetylcholine Transporter as a Novel Target for Insecticide Action” (PLoS ONE, 2012).

The target in assay [1] is T1, D. melanogaster VAChT (Drosophila melanogaster, UniProt O17444).
T1 construct: full-length gene cloned by PCR from adult fly cDNA library, Gateway vector, expressed in PC12 cells (rat)
T1 sequence (O17444 1-578): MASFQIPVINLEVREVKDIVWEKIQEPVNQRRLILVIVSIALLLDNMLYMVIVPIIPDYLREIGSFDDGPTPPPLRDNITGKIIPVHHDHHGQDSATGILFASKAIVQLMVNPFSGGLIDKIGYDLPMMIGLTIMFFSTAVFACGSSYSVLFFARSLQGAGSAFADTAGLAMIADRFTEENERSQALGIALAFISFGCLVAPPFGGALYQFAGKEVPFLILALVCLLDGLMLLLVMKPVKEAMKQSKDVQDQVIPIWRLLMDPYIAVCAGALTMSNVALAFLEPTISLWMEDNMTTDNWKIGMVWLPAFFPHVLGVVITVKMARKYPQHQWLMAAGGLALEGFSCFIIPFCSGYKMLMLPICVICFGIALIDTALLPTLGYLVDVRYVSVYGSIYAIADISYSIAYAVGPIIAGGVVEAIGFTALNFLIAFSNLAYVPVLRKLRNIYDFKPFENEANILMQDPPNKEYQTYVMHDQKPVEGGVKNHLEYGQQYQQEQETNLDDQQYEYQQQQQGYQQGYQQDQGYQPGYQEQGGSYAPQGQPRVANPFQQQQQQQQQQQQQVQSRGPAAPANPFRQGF
Put plainly: displacement of [3H]-SYN876 from membranes of PC12 cells expressing VAChT. Format: binding. The following applies: competition with [3H]-SYN876.

Assay [2] has as its target T1, D. melanogaster VAChT. Description: inhibition of vesicular acetylcholine uptake, PNS from PC12 cells expressing VAChT. It counts as biochemical. As to conditions: substrate acetylcholine.
For assay [3], the target named is T1, D. melanogaster VAChT. Description: [3H]-SYN876 saturation binding to membranes of PC12 cells expressing VAChT.

With `Nc1cccc2c1CC(N1CCC(c3ccccc3)CC1)C(O)C2` (stereo not shown) [aminobenzovesamicol], the IC50 entry at D. melanogaster VAChT [1] was “displaced by the known VAChT inhibitors vesamicol and aminobenzovesamicol (table S3)”.

Consider `OC1CCCCC1N1CCC(c2ccccc2)CC1` (stereo not shown) [vesamicol], for which the IC50 result on D. melanogaster VAChT [1] is “displaced by the known VAChT inhibitors vesamicol and aminobenzovesamicol (table S3)”.

Turning to `O=C(c1ccnc(Cl)c1)N1CC2(CCN(C/C=C/c3ccc(Cl)cc3)CC2)c2cc(F)ccc21` [SYN876], the IC50 entry against D. melanogaster VAChT [2] is reported as “Inhibition of the acetylcholine transport activity of PNS from the cells”. This compound registered a Kd at D. melanogaster VAChT [3] of 0.04 nM.
